Results on 19 compounds are retold here after PubChem BioAssay (NCI).

Where “and” joins values, the source holds several entries; their conditions need not be identical. Equal entries are not always repeated.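 Method: 48-hour compound exposure of cells in 96-well plates, five concentrations, linear interpolation of endpoints. GI50 is the concentration that inhibits growth by half. The concentration for full growth arrest is given as TGI.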

Common to all, as to experiment: NCI tumour cell line growth inhibition, 48 h
Test [1] has as its system HCC-2998 colon.
For test [2], the system named is HOP-62 NSCLC.
The test system of test [3] is HS 578T breast.
Test [4] deals with IGROV1 ovarian.
The test system of test [5] is NCI-H522 lung.
Test [6] concerns OVCAR-4 ovarian.
The subject of test [7] is SK-MEL-28 melanoma.
The subject of test [8] is SK-MEL-5 melanoma.
In test [9] the test system is SNB-75 CNS.
The test system of test [10] is UACC-62 melanoma.

For `COc1cc(/C=C\[N+](=O)[O-])ccc1OCc1ccccc1`, the GI50 in test [1] is 1.86 µM; in test [2] it was 2.35 µM; in test [3] it was 3.81 µM; in test [4], 2.48 µM; in test [5] it was 2.04 µM; in test [6], 3.07 µM. Besides, the GI50 in test [7] is 2.08 µM; in test [8], 1.4 µM; in [9], 1.63 µM; in test [10], 1.7 µM. The TGI in test [1] was 3.63 µM; in [2], 6.58 µM; in test [3], above 100 µM; in test [4], 7.6 µM; in [5], 6.62 µM; in [6], 13.1 µM. Also, the TGI in test [7] is 4.5 µM; in test [8], 3.05 µM; in [9], 6.79 µM; in test [10], 4.67 µM.
With `CN(C)N1C(=O)c2ccccc2NC1c1ccccc1` (stereo unspecified), the TGI in [1], in test [2], in [3], in [4], in test [5] and in test [6] was above 100 µM each time. For the same compound, the TGI in test [7], in test [8], in test [9] and in test [10] was above 100 µM each time.
Turning to `OCCSCc1ccccc1`, the TGI in test [1], in test [2], in [3], in [4], in test [5] and in [6] was above 100 µM each time. The TGI in test [7], in test [8], in [9] and in test [10] was above 100 µM in each case.
For `C#CC1(O)C(COP(=O)(O)OC2CC(n3cc(F)c(=O)[nH]c3=O)OC2CO)OC(n2ccc(N)nc2=O)C1O` (stereo unspecified), the GI50 in test [1] is below 0.01 µM; in test [2], below 0.01 µM; in test [3] it was 0.304 µM; in test [4], below 0.0139 µM; in test [5], below 0.014 µM; in [6] it was 0.143 µM. The GI50 was 0.0474 µM in test [7], below 0.0154 µM in [8], below 0.0169 µM in test [9] and 0.019 µM in test [10]. For the same compound, the TGI was 0.431 µM in [1]; above 100 µM in [2]; above 35.4 µM in test [3]; above 35.9 µM in test [4]; 3.15 µM in [5]; 8.49 µM in test [6]. For the same compound, the TGI came out at 1.72 µM in test [7], 0.196 µM in [8], 1.18 µM in test [9] and 1.82 µM in test [10].
For `COc1cc2c3c(c1)c1cc(OC)c(OC)cc1c[n+]3CC2`, the GI50 in [2] is 3.24 µM; in test [5], 1.93 µM; in test [6] it was 18.2 µM; in test [7], 32.8 µM; in test [8], 11.8 µM; in test [10] it was 28.7 µM. Also, the TGI in [2] is 50 µM and > 100 µM; in test [3], 20.6 µM; in [4] it was 50 µM and > 100 µM; in test [5], 14.8 µM and 37.1 µM; in test [6], 50 µM and > 100 µM; in test [7] it was 50 µM and > 100 µM. Further, the TGI in test [8] is 50 µM and 36.6 µM; in test [10], 50 µM and > 100 µM.
For `O=C(c1ccc2ncc(-c3nc(NC4CC4)ncc3F)n2c1)N1CCOCC1`, the GI50 in [1] was 3.01 µM; in test [2] it was 2.95 µM; in test [3], 2.21 µM; in test [4], 2.42 µM; in test [5], 1.99 µM; in [6], 2.8 µM. The GI50 is 2.47 µM in [7], 2.6 µM in test [8], 1.47 µM in [9] and 1.54 µM in test [10]. For the same compound, the TGI in test [1] amounted to 8.99 µM; in [2], 8.28 µM; in test [3] it was 8.04 µM; in test [4], 12.2 µM; in test [5], 7.41 µM; in [6], 10.9 µM. Also, the TGI in test [7] was found to be 7.6 µM; in test [8], 8.53 µM; in test [9], 3.58 µM; in test [10] it was 3.6 µM.
Regarding `CN(C)CCCN1c2nc3ccccc3cc2Sc2cc3ccccc3nc21`, the GI50 in test [1] is 1.65 µM; in [2], 1.29 µM; in [3], 1.37 µM; in test [7], 1.04 µM; in [8], 1.59 µM; in test [10] it was 1.46 µM. Further, the TGI in [1] came out at 3.26 µM; in test [2] it was 2.58 µM; in [3], 2.91 µM; in test [7] it was 2.21 µM; in [8], 3.04 µM; in test [10], 2.8 µM.
With `NC1CCN(c2nc(Nc3cccc(C(F)(F)F)c3)c3c(=O)[nH]ccc3n2)CC1`, the GI50 in test [1] was 1.6 µM; in test [2], 1.76 µM; in test [3], 1.64 µM; in [5] it was 1.76 µM; in test [6], 1.53 µM; in [7], 1.82 µM. The values for the GI50 in test [8], in test [9] and in test [10] were 1.54 µM, 1.77 µM and 1.83 µM, respectively. Also, the TGI in test [1] was determined as 3 µM; in test [2], 3.54 µM; in [3] it was 4.26 µM; in test [5], 3.57 µM; in [6], 3.84 µM; in test [7], 3.32 µM. In addition, the TGI in [8] amounted to 2.9 µM; in test [9], 3.19 µM; in [10] it was 3.51 µM.
With `ClC(Cl)c1nc(-c2cccnc2)n2nc(-c3ccccc3)cc2n1`, the GI50 in test [1] is 0.639 µM; in [2], 1.69 µM; in test [3], 2.5 µM; in test [4], 1.63 µM; in test [5], 1.67 µM; in [6], 2.03 µM. Further, the GI50 in test [7] was 1.71 µM. The TGI in test [1] turned out to be 2.15 µM; in [2], 6.44 µM; in [3] it was 6.05 µM; in test [4], 5.23 µM; in test [5], 6.03 µM; in test [6], 5.78 µM. In test [7], the TGI was 3.51 µM.
Consider `O=C(Nc1ccc(Cl)cc1)c1ccc(NC2=C(Cl)C(=O)N(Cc3ccccc3)C2=O)cc1`, for which the GI50 in test [2] was 14.1 µM; in [3], 18.4 µM; in test [4], 0.98 µM; in test [5], 8.55 µM; in [6], 18.3 µM; in test [7], 17.4 µM. Besides, the GI50 in test [8] was 31.1 µM; in [9], 20.1 µM; in test [10], 17.9 µM. In addition, the TGI in test [2] was determined as 27.7 µM; in test [3], 49.8 µM; in test [4] it was 6.22 µM; in [5], 30.7 µM; in test [6] it was 43.4 µM; in test [7] it was 37.9 µM. For the same compound, the TGI in [8] stood at 99.3 µM; in test [9] it was 52.5 µM; in test [10], 44.3 µM.
As for `O=S(=O)(NCC1CCC(CNc2ccc(Cl)cc2)CC1)c1ccc(-c2ccccc2)cc1` (stereo unspecified), the GI50 was above 50 µM in test [2]; 12.7 µM in test [3]; above 50 µM in [4]; above 50 µM in test [5]; above 50 µM in test [6]; above 50 µM in test [7]. In addition, the GI50 in test [8] is 15.9 µM; in [10], above 50 µM. The TGI in test [2], in test [3], in test [4], in test [5], in test [6] and in test [7] was above 50 µM throughout. The TGI in test [8] and in test [10] was above 50 µM in each case.
`Cc1sc(C)c(Cc2c(C)sc(C)c2CCl)c1CCl`: the GI50 in test [2], in test [3], in test [4], in [5], in [6] and in test [7] was above 100 µM in each case. Moreover, the figures for the GI50 in test [8] and in [9] were above 100 µM and 51.5 µM, respectively. Besides, the TGI in [2], in test [3], in [4], in test [5], in test [6] and in [7] was above 100 µM each time. Besides, the TGI in [8] and in test [9] was above 100 µM in each case.
On to `Nc1nnc2cc(Cl)ccc2n1`, for which the GI50 in test [1] was above 100 µM; in [2] it was above 100 µM; in test [3] it was 24.6 µM; in test [4], 34.3 µM; in test [6] it was above 100 µM; in test [7], above 100 µM. In addition, the GI50 in test [8] is above 100 µM; in test [9], 9.06 µM; in [10], above 100 µM. Moreover, the TGI in [1], in test [2], in test [3], in test [4], in [6] and in [7] was above 100 µM each time. Besides, the TGI in [8], in [9] and in [10] was above 100 µM throughout.
In the case of `COc1cc2c3c(n(CCCNCCN)c(=O)c2cc1OC)-c1cc2c(cc1C3=O)OCO2`, the GI50 in test [2] was 0.189 µM; in [3], 0.419 µM; in test [4], 0.839 µM; in test [5], 0.245 µM; in [6], 0.475 µM; in test [7], 0.822 µM. The GI50 in test [8] was 0.978 µM; in [9], 6.34 µM; in test [10] it was 1.01 µM. Besides, the TGI in test [2] was determined as 1.73 µM; in test [3], 4.76 µM; in test [5], 2.29 µM; in [6], 2.47 µM; in [7] it was 2.95 µM; in [8], 6.77 µM. In addition, the figures for the TGI in test [9] and in test [10] were 21.5 µM and 2.64 µM, respectively.
For `COC1CC2C=C(C)/C=C/C=C/C(=O)NC(c3ccccc3)C/C=C/CCC(O)CC(=O)C2=C1O` (stereo unspecified), the GI50 was 0.558 µM in test [1]; 0.275 µM in test [2]; 0.393 µM in test [3]; 0.444 µM in [4]; 0.211 µM in test [5]; 0.294 µM in test [6]. Moreover, the GI50 in [7] is 0.703 µM; in test [9], 0.208 µM; in test [10], 0.318 µM. Further, the TGI in test [1] turned out to be 1.94 µM; in test [2], 1.53 µM; in test [3], 1.91 µM; in [4], 1.84 µM; in test [5] it was 0.693 µM; in test [6], 1.08 µM. In addition, the TGI in test [7] amounted to 2.03 µM; in test [9] it was 0.828 µM; in [10], 1.54 µM.
In the case of `CCCCNN`, the TGI in [2], in test [3], in [4], in test [5], in test [6] and in test [7] was above 100 µM each time. For the same compound, the TGI in [8], in test [9] and in test [10] was above 100 µM in each case.
As to `CCOC(=O)C(CO)c1nc2c([nH]c1=O)c(=O)n(C)c(=O)n2C` (stereo unspecified), the TGI in test [1], in test [2], in test [3], in test [4], in [5] and in test [7] was above 100 µM throughout. Also, the TGI in [8] and in test [10] was above 100 µM each time.
`CC(C)c1ccc(/C(C(=O)O)=C(\O)C(=O)O)cc1`: the TGI in test [2], in [3], in test [4], in [5], in test [6] and in test [7] was above 100 µM each time. Also, the TGI in test [8], in [9] and in test [10] was above 100 µM each time.
Consider `CN1CCCN(C)C1c1cc([N+](=O)[O-])ccc1O`, for which the TGI in test [2] was above 100 µM; in test [3] it was 67.8 µM; in test [4] it was above 100 µM; in [5], above 100 µM; in test [6], above 100 µM; in test [7] it was 82.3 µM. Further, the values for the TGI in test [8], in test [9] and in [10] were 48.4 µM, above 100 µM and 44.3 µM, respectively.
